The values below come from US9207243B2, “Use of GLUT4 inhibitors and DNA damaging agents for treating multiple myeloma” (Northwestern University, priority 2011, dated 2015).

The test system of data set [1] is GLUT4. The data set can be described thus: Immunostaining / confocal microscopy of GLUT4 subcellular localization in MM.1S cells. As to conditions: 3 μM 8-NH2-Ado, 5 hours, aggregation of GLUT4 within the trans-golgi network. The data set is classed as cell-based, human. Here is the method: (§1) (A) Measurement of glucose consumed by MM.1S cells treated with 3 μM 8-NH2-Ado for 5 hours. Data are means±SEM (n=3). (B) MM.1S cells were treated for the indicated number of hours with 3 μM 8-NH2-Ado or not (C) prior to lysis and immunoblot analysis of GLUT1 and GLUT4 expression. (C) Immunostaining of GLUT1 and GLUT4 in MM.1S cells treated with 3 μM 8 NH2-Ado for 5 hours. Arrow indicates intracellular aggregation of GLUT4.
To explore mechanisms underlying the decrease in glucose consumption elicited by 8-NH2-Ado in the MM.1S cell line, we examined the regulation of glucose transporters that regulate the primary rate limiting step in glycolysis (Rodriguez-Enriquez, Marin-Hernandez et al. 2009). We examined expression and subcellular localization of GLUT1 and GLUT4, two highly expressed glucose transporters in B lymphocytes. Despite a 40% decline in glucose consumption rates within the first five hours of treatment (FIG. 1A), no substantial changes in GLUT1 or GLUT4 expression levels are observed at this time (FIG. 1B). The expression of both GLUT1 and 4 are diminished by 24 hours, potentially contributing to the further decline in glucose transport rates seen between 5 and 17 hours. Since the activity of these proteins depends upon insertion into the plasma membrane, we next evaluated subcellular distribution by immunofluorescence confocal microscopy (FIG. 1C). […]

The test system of a further data set is MM.1S cells. The data set can be described thus: Glucose consumption of MM.1S cells treated with 8-NH2-Ado. As to conditions: 3 μM 8-NH2-Ado, within the first five hours of treatment. The data set is classed as cell-based, human. The method, then:
as §1
Our laboratory has worked extensively on defining the mechanism of action of purine analogues 8-amino-adenosine (8-NH2-Ado) and 8-chloro-adenosine (Gandhi, Ayres et al. 2001; Krett, Davies et al. 2004; Ghias, Ma et al. 2005). In our recent publication (Shanmugam, McBrayer et al. 2009) we report that 8-NH2-Ado targets cellular metabolism by inducing a rapid decline in glucose consumption, the magnitude of which correlates with toxicity in various myeloma cell lines.
To explore mechanisms underlying the decrease in glucose consumption elicited by 8-NH2-Ado in the MM.1S cell line, we examined the regulation of glucose transporters that regulate the primary rate limiting step in glycolysis (Rodriguez-Enriquez, Marin-Hernandez et al. 2009). […] Since the activity of these proteins depends upon insertion into the plasma membrane, we next evaluated subcellular distribution by immunofluorescence confocal microscopy (FIG. 1C). […]

For data set [2] the following is noted: epirubicin plus lonidamine vs epirubicin alone; did not reach statistical significance; cited from earlier work.
In a further data set the test system is U266 myeloma cells. The data set can be described thus: Doxorubicin cell death in U266 cells in 11 or 0.5 mM glucose medium (flow cytometry, DAPI staining). Format: cell-based, human. To be noted: 0.5 mM vs 11 mM glucose medium, 48 hours. Here is the method:
(A) Primary normal B lymphocytes and CD138+ cells isolated from an MM patient and L363 cells were cultured in medium containing 0 or 5 mM glucose for 48 (NBL, L363) or 72 (MM Patient) hours. Cell viability was determined by flow cytometric analysis of AnnexinV/DAPI staining and normalized to 5 mM samples. Data are means±SEM (n=2). (B) Indicated cells were cultured as in (A) with various concentrations of glucose for 72 hours. Viable cell quantities were determined by MTS assay and normalized to 5 mM samples. Data are means±SEM. (C) U266 myeloma cells were cultured in 11 or 0.5 mM glucose-containing medium for 48 hours in the presence of the indicated concentrations of doxorubicin. Cell death was determined by flow cytometric analysis of DAPI staining. Data are means±SEM. *p<0.05 **p<0.01.
Glucose Deprivation Attenuates Proliferation, Viability and Chemoresistance of Myeloma Cells. To independently ascertain the contribution of glucose in maintaining myeloma cell proliferation and survival we cultured L363 myeloma cells, normal B lymphocytes (NBL), and primary MM cells in medium containing either a physiological glucose concentration (5 mM) or medium devoid of glucose and assessed the impact on cellular viability (FIG. 2 A). Under these conditions, greater than 95% of L363 cells and 50% of the primary MM cells undergo apoptosis while the viability of normal cells is not impacted. […]
A general note: Flow cytometry measures light scatter and fluorescence of single cells or particles in a stream.

The conditions of data set [3]: cited from earlier work.
Data set [4] has as its target T1, GLUT4 (Rattus norvegicus, UniProt P19357).
T1 construct: host or cells: primary rat adipocytes
T1 sequence (P19357 1-509): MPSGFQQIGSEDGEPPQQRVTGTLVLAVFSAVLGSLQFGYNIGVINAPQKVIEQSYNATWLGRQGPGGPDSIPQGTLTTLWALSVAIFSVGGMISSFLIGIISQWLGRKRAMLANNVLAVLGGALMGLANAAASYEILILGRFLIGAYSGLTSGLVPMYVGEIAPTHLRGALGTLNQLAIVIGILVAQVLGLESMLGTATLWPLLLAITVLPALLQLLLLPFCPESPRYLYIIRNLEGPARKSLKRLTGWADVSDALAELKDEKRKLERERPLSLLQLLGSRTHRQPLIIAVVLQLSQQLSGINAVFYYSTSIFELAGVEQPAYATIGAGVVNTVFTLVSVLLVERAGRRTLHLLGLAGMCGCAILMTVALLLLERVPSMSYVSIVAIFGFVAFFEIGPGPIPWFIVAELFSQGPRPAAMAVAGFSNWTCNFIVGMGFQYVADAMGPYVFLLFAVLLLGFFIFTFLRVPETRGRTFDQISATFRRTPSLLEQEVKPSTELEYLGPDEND
As to conditions: primary rat adipocytes (Murata, Hruz et al.); read-out: Ki, reversible non-competitive GLUT4 inhibition; cited from earlier work.

The subject of data set [5] is L363 cells. The data set can be described thus: Glucose consumption rate with ritonavir, L363. The data set is classed as cell-based, human. As to conditions: L363, 5 mM glucose medium, 17 hours. Here is the method: (§2) (A) KMS11 and (B) L363 cells were plated in 5 mM glucose medium with ritonavir or DMSO (D) for 17 hours. Glucose consumption rates are normalized to untreated cells (not shown). (C) KMS11 and (D) L363 cells were treated with ritonavir or DMSO for 12 hours. Relative viable cell numbers were determined by MTS assay and normalized to untreated cells (not shown). (E) KMS11 and (F) L363 cells were treated with 20 μM ritonavir with or without 0.075 (KMS11) and 0.025 μM (L363) doxorubicin or the combination for 72 hrs and cellular viability assessed by AnnexinV/DAPI staining. (G) Stable KMS11 cell lines were generated expressing empty vector or GLUT1 and GLUT1 levels were assessed by immunoblot. Representative blot is shown. N.S. indicates non-specific band. (H) Stable cell lines from part G were treated with DMSO or ritonavir (Rit) for 5 hours and glucose consumption was assessed. (1) Cell proliferation was measured in the stable cell lines described in part G treated with ritonavir (Rit) or DMSO for 72 hours. A representative experiment is shown. (J) Cell proliferation rates from multiple experiments represented by part G are normalized to DMSO-treated cells. (K) Primary myeloma cells were treated with DMSO or ritonavir for 72 hours before AnnexinV/DAPI staining. Values are normalized to DMSO-treated samples (n=1 for each patient sample). Data are means±SEM with n≧3. *P<0.05 **P<0.01 ***P<0.005.

Data set [6] deals with KMS11 cells. The data set can be described thus: Glucose consumption rate with ritonavir, KMS11. Format: cell-based, human. As to conditions: KMS11, 5 mM glucose medium, 17 hours. Here is the method: as §2
For data set [7], the system named is KMS11 cells. The data set can be described thus: Relative viable cell number by MTS assay with ritonavir, KMS11. The data set is classed as cell-based, human. Here is the method: as §2
For orientation: Tetrazolium assays rely on reduction of a dye to a coloured formazan, in cell work by metabolically active cells.

The conditions of data set [8]: humans (Hsu, Granneman et al. 1997); cited from earlier work.
Data set [9] deals with L363 cells. The data set can be described thus: Relative viable cell number by MTS assay with ritonavir, L363. Format: cell-based, human. Here is the method:
as §2

Data set [10] concerns KMS11 stable cell lines expressing GLUT1. The data set can be described thus: Cell proliferation in stable KMS11 cell lines expressing GLUT1 or control, treated with ritonavir. Format: cell-based, human. As to conditions: KMS11 stable line expressing GLUT1, 72 hours. Here is the method: as §2
Data set [11] shares this test system. The data set can be described thus: Glucose consumption in stable KMS11 cell lines expressing GLUT1 or control, treated with ritonavir. Format: cell-based, human. To be noted: KMS11 stable line expressing GLUT1, 5 hours. Here is the method: as §2
Data set [12] concerns KMS11 cells. The data set can be described thus: Ritonavir with or without doxorubicin, viability by AnnexinV/DAPI staining, KMS11. Format: cell-based, human. As to conditions: KMS11, 20 μM ritonavir with 0.075 μM doxorubicin, 72 hrs. The method, then: as §2
Data set [13] relates to L363 cells. The data set can be described thus: Ritonavir with or without doxorubicin, viability by AnnexinV/DAPI staining, L363. Format: cell-based, human. As to conditions: L363, 20 μM ritonavir with 0.025 μM doxorubicin, 72 hrs. Here is the method:
as §2

In a further data set the test system is primary myeloma cells. The data set can be described thus: Cytotoxicity of ritonavir towards primary myeloma cells (AnnexinV/DAPI staining). Format: cell-based, human. To be noted: 20 μM ritonavir, 72 hours. Here is the method:
as §2

[14] abbreviates: 2DG and docetaxel, evaluable pool of 18 patients.

Each structure is given as a SMILES string.

In the case of `Nc1ncnc2c1nc(N)n2[C@@H]1O[C@H](CO)[C@@H](O)[C@H]1O` [8-NH2-Ado, 8-amino-adenosine], the “basal cell surface localization of GLUT4” value in the data set with GLUT4 [1] was “reduces this basal cell surface localization of GLUT4”. Besides, the “decline in glucose consumption rates” value in the data set on MM.1S cells worked out at 40%.

For `O=C(O)c1nn(Cc2ccc(Cl)cc2Cl)c2ccccc12` [lonidamine], in [2], the “increase in overall response rate” value is listed as 9%.

On to `COc1cccc2c1C(=O)c1c(O)c3c(c(O)c1C2=O)C[C@@](O)(C(=O)CO)C[C@@H]3O[C@H]1C[C@H](N)[C@H](O)[C@H](C)O1` [doxorubicin], for which the “sensitivity to doxorubicin under glucose-limiting conditions” value with U266 myeloma cells is listed as “significantly greater sensitivity”.

Consider `O=CC[C@@H](O)[C@H](O)[C@H](O)CO` [2DG], for which the “adverse event noted in multiple patients” value in data set [3] (2DG and docetaxel phase I trial) is reported as “Grade 3 hyperglycemia”. In [3] (setting [14]), the “cases of disease stabilization” value is listed as “six” and the partial response result is on record as “one”.

In general, Ki refers to the equilibrium dissociation constant of an inhibitor or competing ligand from its target. With `CC(C)(C)NC(=O)[C@@H]1CN(Cc2cccnc2)CCN1C[C@@H](O)C[C@@H](Cc1ccccc1)C(=O)N[C@H]1c2ccccc2C[C@H]1O` [indinavir], the Ki on GLUT4 [4] is 15 µM.

As for `CC(C)c1nc(CN(C)C(=O)N[C@H](C(=O)N[C@@H](Cc2ccccc2)C[C@H](O)[C@H](Cc2ccccc2)NC(=O)OCc2cncs2)C(C)C)cs1` [ritonavir], the “glucose transport (glucose consumption rate)” value with L363 cells [5] and with KMS11 cells [6] was “dose-dependent abrogation” throughout. The “proliferation (relative viable cell numbers, MTS)” value in the data set on KMS11 cells [7] and in the data set with L363 cells [9] was “dose-dependent abrogation” throughout. Further, the “peak plasma level routinely achieved in humans” value in data set [8] is about 20 µM. In data set [10], the “effect of GLUT1 expression on response to prolonged ritonavir treatment (proliferation)” value was “robust resistance”. In addition, in data set [11], the “effect of GLUT1 expression on ritonavir-induced glucose transport inhibition” value is “completely mitigated”. For the same compound, the sensitization to doxorubicin result in the data set on KMS11 cells [12] and in the data set on L363 cells [13] was “recapitulates the doxorubicin-sensitizing effects of glucose limitation” each time. Also, the “cell death induction in patient samples” value in the data set on primary myeloma cells is listed as “a range of cell death induction”.
